Measured values as given in patent publication US20200055848A1, “FURANONE DERIVATES AND METHODS OF USE THEREOF” (CARNA BIOSCIENCES, INC., priority 2016, published 2020).
pIC50: −log10 of the molar value. Several values for one entry are separate records, joined by “and”; a condition that tells them apart may be missing. Equal entries are not always repeated.

Assays:
[1] = molecular target: T1, human Cdc7/human ASK complex protein (Homo sapiens, UniProt O00311); assay: Cdc7/ASK enzymatic assay; type: biochemical; details: 5 μM ATP; mean of duplicated assays; read-out: Cdc7 IC50
T1 construct: purchased Carna Biosciences, Inc
T1 sequence (O00311 whole entry): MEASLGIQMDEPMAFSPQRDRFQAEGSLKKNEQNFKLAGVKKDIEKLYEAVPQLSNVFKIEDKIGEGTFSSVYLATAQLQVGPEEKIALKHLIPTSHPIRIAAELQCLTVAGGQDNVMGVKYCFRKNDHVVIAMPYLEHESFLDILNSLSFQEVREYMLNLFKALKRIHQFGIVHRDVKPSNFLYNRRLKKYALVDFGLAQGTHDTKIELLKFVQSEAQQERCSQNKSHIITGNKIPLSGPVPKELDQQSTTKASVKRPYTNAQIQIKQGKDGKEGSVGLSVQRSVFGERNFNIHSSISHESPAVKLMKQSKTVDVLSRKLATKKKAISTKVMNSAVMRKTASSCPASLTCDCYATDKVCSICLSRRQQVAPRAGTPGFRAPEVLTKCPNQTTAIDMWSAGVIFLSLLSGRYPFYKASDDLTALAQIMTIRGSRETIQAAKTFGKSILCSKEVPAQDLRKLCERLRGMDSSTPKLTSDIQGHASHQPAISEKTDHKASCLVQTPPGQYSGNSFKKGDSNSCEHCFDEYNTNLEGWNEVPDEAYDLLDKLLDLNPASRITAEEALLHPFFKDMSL
T1 sequence (Q9UBU7 whole entry partner): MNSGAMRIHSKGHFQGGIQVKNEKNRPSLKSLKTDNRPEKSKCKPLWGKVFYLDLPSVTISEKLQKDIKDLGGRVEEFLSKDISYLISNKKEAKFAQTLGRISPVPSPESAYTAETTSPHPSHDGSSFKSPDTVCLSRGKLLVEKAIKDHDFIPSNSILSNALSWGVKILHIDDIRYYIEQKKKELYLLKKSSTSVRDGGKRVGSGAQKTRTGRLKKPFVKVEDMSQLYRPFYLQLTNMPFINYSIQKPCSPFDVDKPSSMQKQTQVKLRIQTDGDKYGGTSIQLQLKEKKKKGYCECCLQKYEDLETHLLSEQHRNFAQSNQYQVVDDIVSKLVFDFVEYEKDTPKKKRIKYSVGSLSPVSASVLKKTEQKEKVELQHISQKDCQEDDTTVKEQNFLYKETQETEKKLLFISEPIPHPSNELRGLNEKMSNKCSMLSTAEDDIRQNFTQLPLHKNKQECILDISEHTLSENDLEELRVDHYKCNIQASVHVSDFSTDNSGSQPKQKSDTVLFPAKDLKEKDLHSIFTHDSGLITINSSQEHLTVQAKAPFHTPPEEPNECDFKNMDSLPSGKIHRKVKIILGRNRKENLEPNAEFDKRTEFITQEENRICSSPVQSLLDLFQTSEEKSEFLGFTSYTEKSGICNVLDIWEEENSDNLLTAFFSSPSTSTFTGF
Method: Measurement of Cdc7 kinase activity was carried out using MSA assay kit (QuickScout™ Screening Assist Kit, Carna Biosciences, Inc.). Assay buffer (20 mM HEPES, 0.01% Triton X-100™, 2 mM dithiothreitol, pH 7.5) was used to prepare a substrate mixture solution comprising 4 μM of kinase-reaction substrate (FITC-labeled MCM2 peptide), 40 mM MgCl2, and 4 times concentrations of final targeted ATP (5, 100, and 1,000 μM). The enzyme supplied in the kit (human Cdc7/human ASK complex protein) was diluted into the assay buffer to prepare a 7 nM solution (enzyme solution). The compound stock solution was prepared by diluting a 10 mM DMSO solution into the assay buffer (final 4% DMSO). The kinase reaction was performed by mixing of 5 μL of the compound solution, 5 μL of the substrate mixture solution, and 10 μL of the enzyme solution in a 384-well plate. For the pre-incubation assay, the compound solution and the enzyme solution were pre-mixed and incubated at ambient temperature for 30 min before adding into the substrate mixture solution to start enzymatic reaction. After the reaction at 25° C. for 5 hours, 60 μL of the termination buffer (supplied in the kit) was added to stop the reaction. The phosphorylation of substrate was measured using a LabChip EZ Reader II system (Caliper Life Sciences). The percent inhibition (%) by a tested compound was calculated according to the following formula:
Percent inhibition (%)=(1−(C−A)/(B−A))×100
A represents P/(P+S) for a blank well, B represents P/(P+S) for a solvent well, and C represents P/(P+S) for a compound-added well. S: the peak heights of the separated substrate, P: phosphorylated substrate.
The IC50 value of tested compound was calculated by regression analysis of the percent inhibition values versus the (logarithmic) concentration of the tested compound.

[2] = In vitro metabolic stability, human liver microsomes; type: in vitro ADME; details: for HLM % (remaining % of parent compound): 30 min treatment of human liver microsomes
Method: (§1) NADPH regeneration system (13 mM NADP, 33 mM Glucose-6-phospate, 33 mM MgCl2, and 4 U/mL of Glucose-6-phosphate dehydrogenase) and liver microsomes (1 mg/mL of HLM (BD Gentest, lot 18888) or MLM (BD Gentest, lot 31197)) in 0.1 M phosphate buffer (pH 7.4) were pre-incubated separately at 37° C. for 20 min before mixing with 1:4 ratio. 50 μL of the mixed solution was added to 50 μL of the test compound (2 μM) to initiate the reaction at 37° C. (final conc. 1 μM test compound, 0.4 mg/mL liver microsomes, and 1.3 mM NADPH). After 30 min, the reactions were stopped by adding 300 μL of cold acetonitrile. For 0 min samples, ice-cold acetonitrile (with system suitability standard) was treated before mixing the test compound and microsomes. The sample were vortexed well and then centrifuged at 3500 rpm at 15° C. for 20 min. 110 μL of supernatant was mixed with 110 μL of water and quantitated by LC-MS/MS workstation (Shimazu Corp.).

[3] = In vitro metabolic stability, mouse liver microsomes; type: in vitro ADME; details: for MLM % (remaining % of parent compound): 30 min treatment of mouse liver microsomes
Method: as §1

[4] = Stability of the ethyl ester to hydrolysis; type: physicochemical
Method: Because the ester was expected to form important hydrogen bond with Lys90, an SAR study for the ester group was performed (Table 2). […] Generally esters are labile and can be easily hydrolyzed to the corresponding carboxylic acid. To our surprise, the ethyl ester of 3 was very stable even under strong basic conditions, and it required an extremely strong basic condition (50% w/v KOH aq., reflux) to hydrolyze this ester.
The general procedure for the replacement of R^2 by various groups is shown in Scheme 2. Methyl ester 8 was obtained analogously to ethyl ester 3 from the furanone intermediate 39 which was prepared from methyl 4-chloroacetoacetate 37 and phenyl isocyanate 38 (Scheme 2A). Compound 9 (Scheme 2B) was obtained by hydrolysis of compound 3 under extremely strong basic condition (50% w/v KOH aq., reflux). […] The amide analogs (10-12) were prepared directly by aminolysis of ethyl ester 3 with appropriate amines (Scheme 2C).

[5] = molecular target: T1, human Cdc7/human ASK complex protein; assay: Cdc7/ASK enzymatic assay; type: biochemical; details: 5 μM ATP versus 10 μM ATP as printed

| SMILES | pIC50 [1] | HLM % (remaining % of parent compound) [2] [%] | metabolic stability in human liver microsome (in words) ([2]; human) | MLM % (remaining % of parent compound) [3] [%] | metabolic stability in mice (in words) ([3]; mouse) | stability of the ethyl ester ([4]; conventional ester hydrolysis conditions: 2N HCl aq./EtOH, 60° C. or 2N NaOH aq./EtOH, 60° C.) | stability of the ethyl ester ([4]; strong basic conditions, hydrolysis required 50% w/v KOH aq., reflux) | fold stronger inhibitory potency at 5 μM ATP than inhibition at 10 μM ATP concentration [5] [fold] |
| --- | --- | --- | --- | --- | --- | --- | --- | --- |
| CCOC(=O)C1=C(Nc2ccccc2)OC(=Cc2c[nH]c3ncccc23)C1=O [Compound 3, Ethyl 5-((1H-pyrrolo[2,3-b]pyridin-3-yl)methylene)-4-oxo-2-(phenylamino)-4,5-dihydrofuran-3-carboxylate] | 8.48 and 8.42 | 23 | moderate metabolic stability | 7.9 | rapidly metabolized | very stable | very stable | 21 |
| CCOC(=O)C1=C(Nc2ccccc2C)OC(=Cc2c[nH]c3ncccc23)C1=O [Compound 21, Ethyl 5-((1H-pyrrolo[2,3-b]pyridin-3-yl)methylene)-4-oxo-2-(o-tolylamino)-4,5-dihydrofuran-3-carboxylate] | 8.42 | 53 |  | 24 |  |  |  |  |
| CCOC(=O)C1=C(Nc2ccccc2F)OC(=Cc2c[nH]c3ncccc23)C1=O [Compound 19, Ethyl 5-[(1H-pyrrolo[2,3-b]pyridin-3-yl)methylene]-2-[(2-fluorophenyl)amino]-4-oxo-4,5-dihydrofuran-3-carboxylate] | 8.62 | 30 |  | 10 |  |  |  |  |
